Experimental data taken from US7855215B2, “Cyclic diaryl ureas suitable as tyrosine kinase inhibitors” (Novartis AG, priority 2004, dated 2010).

| SMILES | melting point |
| --- | --- |
| Nc1nccc(Oc2ccc3c(c2)CCCCN3C(=O)Nc2cccc(C(F)(F)F)c2)n1 [Example 7, 7-(2-Amino-pyrimidin-4-yloxy)-2,3,4,5-tetrahydro-benzo[b]azepine-1-carboxylic acid (3-trifluoromethyl-phenyl)-amide] | 207 °C |
| Nc1nc(Cl)cc(Oc2ccc3c(c2)CCCCN3C(=O)Nc2cccc(C(F)(F)F)c2)n1 [Example 6, 7-(2-Amino-6-chloro-pyrimidin-4-yloxy)-2,3,4,5-tetrahydro-benzo[b]azepine-1-carboxylic acid (3-trifluoromethyl-phenyl)-amide] | 175 °C |
| CN1CCN(Cc2ccc(NC(=O)N3CCCc4cc(Oc5ccnc(N)n5)ccc43)cc2C(F)(F)F)CC1 [Example 33, 6-(2-Amino-pyrimidin-4-yloxy)-3,4-dihydro-2H-quinoline-1-carboxylic acid [4-(4-methyl-piperazin-1-ylmethyl)-3-trifluoromethyl-phenyl]-amide] | 120 to 123 °C |
| CC(C)(CCC(=O)Nc1cc(Oc2ccc3c(c2)CCN3C(=O)Nc2ccc(N3CCOCC3)c(C(F)(F)F)c2)ncn1)[N+](=O)[O-] [Example 38] | 193 to 197 °C |
| CC(C)Nc1cc(Oc2ccc3c(c2)CCN3C(=O)Nc2cccc(C(F)(F)F)c2)ncn1 [Example 19, 5-(6-Isopropylamino-pyrimidin-4-yloxy)-2,3-dihydro-indole-1-carboxylic acid (3-trifluormethyl-phenyl)-amide] | 189 °C |
| CNc1cc(Oc2ccc3c(c2)CCCN3C(=O)Nc2ccc(C(C)(C)C)cc2)ncn1 [Example 3, 6-(6-Methylamino-pyrimidin-4-yloxy)-3,4-dihydro-2H-quinoline-1-carboxylic acid (4-tert.butyl-phenyl)-amide] | 175 to 176 °C |
| CN1CCN(CCCNc2cc(Oc3ccc4c(c3)CCN4C(=O)Nc3cccc(C(F)(F)F)c3)ncn2)CC1 [Example 18, 5-{6-[3-(4-Methylpiperazin-1-yl)-propylamino]-pyrimidin-4-yloxy}-2,3-dihydro-indole-1-carboxylic acid (3-trifluormethyl-phenyl)-amide] | 163 °C |
| O=C(Nc1cccc(C(F)(F)F)c1)N1CCCCc2cc(Oc3cc(Cl)ncn3)ccc21 [Example 8, 7-(6-Chloro-pyrimidin-4-yloxy)-2,3,4,5-tetrahydro-benzo[b]azepine-1-carboxylic acid (3-trifluoromethyl-phenyl)-amide] | 120 °C |
| CC(C)(N)CCC(=O)Nc1cc(Oc2ccc3c(c2)CCN3C(=O)Nc2ccc(N3CCOCC3)c(C(F)(F)F)c2)ncn1 [Example 39] | 211 to 214 °C |

Results, then the compound that gave them:

| melting point | SMILES |
| --- | --- |
| 227 to 229 °C | O=C(Nc1ccccc1)c1cc(Oc2ccc3c(c2)CCN3C(=O)Nc2cccc(C(F)(F)F)c2)ncn1 [Example 74, 5-(6-Phenylcarbamoyl-pyrimidin-4-yloxy)-2,3-dihydro-indole-1-carboxylic acid (3-trifluoromethyl-phenyl)-amide] |
| 206 to 209 °C | COC(=O)Nc1cc(Oc2ccc3c(c2)CCN3C(=O)Nc2ccc(N3CCOCC3)c(C(F)(F)F)c2)ncn1 [Example 41] |
| 175 to 177 °C | CN1CCN(C(=O)Nc2cc(Oc3ccc4c(c3)CCN4C(=O)Nc3ccc(N4CCOCC4)c(C(F)(F)F)c3)ncn2)CC1 [Example 42] |
| 253 to 258 °C | O=C(Nc1cc(Oc2ccc3c(c2)CCN3C(=O)Nc2ccc(N3CCOCC3)c(C(F)(F)F)c2)ncn1)c1cccnc1 [Example 40] |
